Experimental data taken from patent US20070117849A1, “Alfavbeta3 and alfavbet6 integrin antagonists as antifibrotic agents” (priority 2003, published 2007).

Legend:
[1] = test system: secondary biliary liver fibrosis; test: Rat fibrosis model of bile duct occlusion (secondary biliary liver fibrosis); format: in vivo; details: after 5-6 weeks of bile duct occlusion, pilot experiments
Procedure: Animal experimentation: Male adult Wistar rats, average weight 206±19 g, underwent the following microsurgical procedure under an operating microscope (OPMI 6-S, Zeiss, Germany) (45-47): 1. midline abdominal incision following anesthesia with 100 mg/kg ketamine-hydrochloride (Ketanest®, Parke-Davis, Germany) and 10 mg/kg 5,6-dihydro-2-(2,6-xylidino)-4H-1,3-thiazine-hydrochloride (Rompun®, Bayer, Germany); 2. dissection of the common bile duct, insertion of a teflon catheter (Abbocath®-T 26 G, Venisystems, USA) and placement of a distal complete and a proximal incomplete ligature with 5-0 silk (Perma-hand®, Ethicon, Germany); 3. retrograde injection of sodium-amidotrizoate (Ethibloc®, Ethicon Germany) at a dose of […] body weight; 4. removal of the catheter, closure of the proximal ligature, scission of the bile duct between the ligatures and wound closure. After bile duct occlusion (BDO), animals received normal chow (Altromin®, Lage, Germany) and were allowed free access to water. […]
(§1) To investigate whether the […] integrin inhibitor had any effect on ECM expression in HSC/MF mRNA, expression of a spectrum of the major pro- and anti-fibrogenic molecules like procollagen α1(I) I, TGFβ1, TGFβ2, MMP-3, MMP-13, MMP-2, connective tissue growth factor (CTGF) and TIMP-1 was measured by Real-Time PCR. […]

CTGF = test: Real-Time PCR of CTGF expression in CFSC-2G cells; format: cell-based, rat; details: PDGF-BB 10 ng/ml 24 h, inhibitor 10^−6-10^−8 M, dose-dependent, maximum of inhibition at 10^−6 M
Procedure: (§2) Real-Time PCR Total RNA was isolated from the cell lysates using the RNApure commercial kit (PeqLab, Erlangen, Germany) according to the manufacturer's recommendations. Template cDNA was obtained by reverse transcription of […] of total RNA.
(§3) Relative transcript levels were quantified by real time RT-PCR using the LightCycler system (Roche), using 1,5 μl of template cDNA dilution in a total reaction volume of 15 μl that included Taq DNA-Polymerase, dNTP-mix, reaction buffer, and 3.0 mM MgCl2 provided by the “LightCycler FastStart DNA Master Hybridization Probes Kit” (Roche Molecular Biochemicals, Mannheim, Germany) according to the manufactor's instructions. For every measured transcript a 1:2 to 1:32 dilution series of one sample was used as standard. Data were analyzed with the LightCycler software using the “proportional second derivative maximum” option. The housekeeping genes beta-2 microglobulin or GAPDH were amplified in a parallel reaction for normalization of the results. […]
as §1

HSC/MF = test: BrdU incorporation (cell proliferation, de novo DNA synthesis); format: cell-based, rat
Procedure: Briefly, the liver was perfused in situ through the portal vein using a 16-18 G cannula with calcium-free HBSS (Gybco, UK) for S min followed by 0,1% Pronase E (Sigma) and subsequently 0.025% type IV collagenase (Sigma) in Dulbecco's modified Eagle's medium for 10-15 min each. The digested liver was excised, gently minced and incubated further with 0.04% pronase, 0,025% collagenase, 0,002% DNAse (Sigma) in Dulbecco's modified Eagle's medium, supplemented with 25 mM HEPES at 37° C. for 10-30 min with gentle agitation. After filtration through 100 μm nylon gauze, parenchymal cells were removed by low speed centrifugation. […] Viability of the isolated cells was assessed by Trypan Blue exclusion and was routinely greater then 95-98%. […] Contamination with Kupffer cells was assessed by the ability to engulf 3 μm latex beads and was below 3-5% after isolation, and almost undetectable after the 1st passage. […]
BrdU incorporation: To assess cell proliferation de novo DNA synthesis was determined as BrdU incorporation. […] During last […] of incubation cells were pulse-labeled with BrdU and its incorporation measured using an ELISA kit (Roche) and a micro-plate reader. […]

CFSC-2G cells = test: Scratch assay (cell migration), CFSC-2G cells; format: cell-based, rat; details: PDGF-BB 10 ng/ml, 17-20 h
Procedure: In addition the HSC cell lines CFSC-2G (moderately activated, kind gift of Dr. M. Rojkind, Washington DC, USA) were used.
(§4) Scratch assay: Cell migration was estimated by measuring the reduction of scratch area. Cells were seeded on a 24-well plate at a density of 60,000 cells/well. After reaching confluency cells were starved in serum-free medium for 24 h before making a scratch through the cell monolayer using a sterile pipet tip. After wounding cells were pre-treated by the αvβ3-integrin inhibitor at increasing concentrations (10^−10M-10^−6M) for 30 min and then treated by PDGF-BB at a concentration of 10 ng/ml in the absence of serum. The reduction of scratch area was measured at three different points per well using a special ocular with net-micrometer after […].
(§5) All experiments were performed in cell culture with the myofibroblasts-like cell line CFSC-2G (HSC cell line derived from cirrhotic rat liver) and primary rat HSC/MF. To investigate the effect of the αvβ3 integrin inhibitor on cell migration cells were seeded on 24 well plates and after reaching confluence starved in the absence of FCS for 24 h. Scratches were done and the cells treated with PDFG-BB at 10 ng/ml in the presence or absence of the αvβ3 inhibitor at 10^−6-−10^9 M. The rate of migration was measured after 17-20 h as a reduction of initial scratch width. […]

[2] = test system: procollagen α1(I), TGFβ1, TGFβ2, MMP-3, MMP-13, MMP-2, TIMP-1; test: Real-Time PCR of other pro- and anti-fibrogenic molecules in HSC/MF; format: cell-based, rat; details: PDGF-BB 10 ng/ml 24 h; data not shown
Procedure: as §2, §3, §1

primary rat HSC/MF = test: Scratch assay (cell migration), primary rat HSC/MF; format: cell-based
Procedure: Briefly, the liver was perfused in situ through the portal vein using a 16-18 G cannula with calcium-free HBSS (Gybco, UK) for S min followed by 0,1% Pronase E (Sigma) and subsequently 0.025% type IV collagenase (Sigma) in Dulbecco's modified Eagle's medium for 10-15 min each. The digested liver was excised, gently minced and incubated further with 0.04% pronase, 0,025% collagenase, 0,002% DNAse (Sigma) in Dulbecco's modified Eagle's medium, supplemented with 25 mM HEPES at 37° C. for 10-30 min with gentle agitation. After filtration through 100 μm nylon gauze, parenchymal cells were removed by low speed centrifugation. The HSC fraction was collected from the gradient interface after enrichment by a two-step centrifugation through a 11 and 13% gradient of Nycodenz (Sigma) at 1500 g for 15 min without braking, and plated at a density 0.5×10^6/cm^2 in DMEM supplemented with 10% FCS, penicillin and streptomycin. Medium was changed after 24 h, and further every 48 hours. Viability of the isolated cells was assessed by Trypan Blue exclusion and was routinely greater then 95-98%. Purity of HSC isolates was confirmed by their typical morphological appearance: lipid-droplets in the cytoplasm showing greenish autofluorescence at 390 nm excitation and star-like shape. Contamination with Kupffer cells was assessed by the ability to engulf 3 μm latex beads and was below 3-5% after isolation, and almost undetectable after the 1st passage. For experiments cells were used between the 1st and 3rd passage, if not stated otherwise.
as §4, §5

O=C(O)CC(NC(=O)C(COCc1ccccc1)NC(=O)CCCCNc1ccccn1)c1cc(Cl)cc(Cl)c1 (centres unmarked) [EMD 409849, 3-{3-Benzyloxy-2-[5-(pyridin-2-ylamino)-pentanoylamino]-propanoylamino}-3-(3,5-dichloro-phenyl)-propionic acid]
reduction of total liver collagen [1]: 50-70%

CNc1cccc(CCOc2ccc3c(C(CC(=O)O)c4ccc5nsnc5c4)c[nH]c3c2)n1 (centres unmarked) [EMD 409915, 3-Benzo[1,2,5]thiadiazol-5-yl-3-{6-[2-(6-methylamino-pyridin-2-yl)-ethoxy]-1H-indol-3-yl}-propionic acid]
CTGF expression (CTGF): downregulated
serum-stimulated cell proliferation (HSC/MF; 10% FCS, inhibitor 10^−6-10^−8 M): absence of effect
PDGF-BB stimulated cell proliferation (HSC/MF; all cell types, PDGF-BB 10 ng/ml, inhibitor 10^−8-10^−6 M, 24 h): did not have any effect
PDGF-BB induced cell migration into the scratch area (CFSC-2G cells; inhibitor 10^-9-10^-6 M, dose-dependent): strongly inhibited
PDGF-BB induced cell migration at 10^−6 M (CFSC-2G cells; inhibitor 10^−6 M): Complete abrogation
transcripts levels of other ECM molecules [2]: no change
inhibition of migration at reduced concentrations of FCS (primary rat HSC/MF; FCS 0,25%, data not shown): did not show any significant inhibition
cell migration stimulated by FCS (primary rat HSC/MF; HSC/MF, FCS-stimulated, inhibitor 10^−10-10^−6 M, 20 h): no effect
PDGF-BB induced cell migration into the scratch area (primary rat HSC/MF; primary rat HSC/MF, PDGF-BB 10 ng/ml, inhibitor 10^-9-10^-6 M, 17-20 h, dose-dependent): strongly inhibited
PDGF-BB induced cell migration at 10^−6 M (primary rat HSC/MF; primary rat HSC/MF, PDGF-BB 10 ng/ml, inhibitor 10^−6 M, 17-20 h): Complete abrogation
